Source: patent publication US8383637B2, “2-amino-quinazoline derivatives useful as inhibitors of β-secretase (BACE)” (Jansssen Pharmaceutica N.V., priority 2004, dated 2013)
Where “and” joins values, the source holds several entries; their conditions need not be identical. Identical values can stand only once.

Tests used:
Assay type in all cases: biochemical
β-secretase(BACE) [1] = target: T1, β-secretase(BACE) (Homo sapiens, UniProt P56817); assay: BACE % Inhibition Assay ((Aedens)-[…]-(Dabcyl K-amide) substrate)
T1 construct: purchased Panvera
T1 sequence (P56817 46-501): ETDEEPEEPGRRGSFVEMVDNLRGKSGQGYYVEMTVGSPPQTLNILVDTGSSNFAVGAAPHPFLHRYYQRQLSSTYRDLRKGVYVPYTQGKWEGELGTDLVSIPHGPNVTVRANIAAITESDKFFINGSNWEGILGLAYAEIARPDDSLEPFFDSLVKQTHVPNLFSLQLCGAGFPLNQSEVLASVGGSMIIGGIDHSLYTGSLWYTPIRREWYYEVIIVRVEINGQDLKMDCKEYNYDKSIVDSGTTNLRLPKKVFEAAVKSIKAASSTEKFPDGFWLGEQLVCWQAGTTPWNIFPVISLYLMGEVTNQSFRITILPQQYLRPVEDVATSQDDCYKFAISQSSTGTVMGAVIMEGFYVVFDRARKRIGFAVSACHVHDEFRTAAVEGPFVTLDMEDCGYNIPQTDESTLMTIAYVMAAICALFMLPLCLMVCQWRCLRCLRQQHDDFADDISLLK
Method: The substrate stock solution was prepared in DMSO as a 10 mg/mL solution. The substrate working solution was prepared by diluting the 10 mg/mL stock solution with substrate assay buffer to a final concentration of 300 μg/mL. The β-secretase (BACE) working solution was prepared by diluting a 0.83 mg/mL BACE stock solution with enzyme assay buffer to a final concentration of 4 μg/mL.
Test compounds were dissolved in DMSO to 10 mM.
The screening procedure for this assay was as follows: 15 μL of BACE working solution was pipetted into each well of a 96-well plate. To each well was then pipetted 2 μL of test compound at the selected concentration. Test compound and BACE were then mixed with a pipettor and incubated for 20 min at room temperature. To each well was then added 10 μL of the substrate working solution. The plates were then incubated for 1 hour at room temperature.
The procedure for the blank was as follows. 15 μL of assay buffer was pipetted into each well to be used as a blank control. To each well was then added 2 μL of vehicle and 10 μL of substrate working solution. The plates were then incubated for 1 hour at room temperature.
The procedure for the positive control was as follows: 15 μl of BACE working solution was pipetted into each well to be used as a positive control. To each well was then pipetted 2 μL of vehicle. Vehicle and BACE were then mixed with a pipettor and incubated for 20 min at room temperature. To each well was then added 10 μL of the substrate working solution. The plates were then incubated for 1 hour at room temperature.
For test compounds, % inhibition was determined at each concentration as follows: […]

β-secretase(BACE) [2] = target: T1, β-secretase(BACE); assay: BACE Assay-1 (MCA-substrate, IC50); settings: procedure of Example 158; read-out: IC50 μM (158)
How it was run: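 Human BACE (work solution 10 μg/mL) with MCA-peptide substrate (stock 2.0 mg/mL) in 0.05 M citrate buffer, pH 5.0, with PEG8000. Fluorescence read at T0 and T60; compounds tested at multiple concentrations and IC50 calculated from these readings.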

β-secretase(BACE) [3] = target: T1, β-secretase(BACE); assay: BACE Assay-2 (FS1 substrate, IC50 and Ki); settings: procedure of Example 159, FS1 substrate; for Ki: read-out: Ki μM (159)
β-secretase(BACE) [4] = target: T1, β-secretase(BACE); assay: BACE FS1% Inhibition Assay; settings: FS1 substrate; for inhibition at 0.3 µM / % Inhibition (FS) 0.3 μM: 0.3 μM test compound; for inhibition at 0.3 µM: read-out: % Inhibition (FS) 0.3 μM; for inhibition at 1 µM / % Inhibition (FS) 1 μM: 1 μM test compound; for inhibition at 1 µM: read-out: % Inhibition (FS) 1 μM; for inhibition at 3 µM / % Inhibition (FS) 3 μM: 3 μM test compound
How it was run: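 Percent inhibition at each tested concentration, referenced to enzyme-free blank and vehicle-only positive control. Reaction: compound and BACE (4 μg/mL working stock) mixed 20 min at room temperature before FS1 substrate (300 μg/mL working stock), then 1 h at room temperature.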

[5] = 3 μM test compound, % error ±10%
[6] = 10 μM test compound, % error ±10%
[7] = 0.3 μM test compound, % error ±10%
[8] = 1 μM test compound, % error ±10%
[9] = read-out: % Inhibition (FS) 3 μM

Compound	% Inhibition (β-secretase(BACE) [1]; [5])	% Inhibition (β-secretase(BACE) [1]; [6])	IC50 (β-secretase(BACE) [2])	Ki (β-secretase(BACE) [3])	inhibition at 0.3 µM (β-secretase(BACE) [4])	inhibition at 1 µM (β-secretase(BACE) [4])	inhibition at 3 µM (β-secretase(BACE) [4]; [9])	further results
CN(C(=O)c1ccc(CN2Cc3cc(Oc4ccccc4)ccc3N=C2N)cc1)C1CCCCC1 [Compound 97]	<30%	53%						
CN(C(=O)c1cccc(N2Cc3cc(Oc4ccccc4)ccc3N=C2N)c1)C1CCCCC1 [Compound 94]	<30%	<30%						
CCOC(=O)CCN1Cc2cc(Oc3ccccc3)ccc2N=C1N [Compound 65]	<30%	<30%						
CCCN1Cc2cc(Oc3cccc(NC(=O)C4CCCCC4)c3)ccc2N=C1N [Compound 44]	<30%	31%						
CN(C(=O)[C@@H]1CC[C@H](N2Cc3cc(Oc4ccccc4)ccc3N=C2N)C1)C1CCCCC1 [Compound 77]	<30%	<30%						
CCCC(CCC(=O)N(C)C1CCCCC1)N1Cc2cc(Oc3ccccc3)ccc2N=C1N (stereo not shown) [Compound 86]	72%	80%						
CN(C(=O)C1CCC(CN2Cc3cc(Oc4ccccc4)ccc3N=C2N)CC1)C1CCCCC1 (stereo not shown) [Compound 100]	<30%	<30%						
NC1=Nc2ccc(Oc3ccccc3)cc2CN1Cc1cccc(CNC(=O)C23CC4CC(CC(C4)C2)C3)c1 [Compound 336]	<30%							% Inhibition (β-secretase(BACE) [1]; [7]): <30%; % Inhibition (β-secretase(BACE) [1]; [8]): <30%
NC1=Nc2ccc(Oc3ccccc3)cc2CN1C(CNC(=O)C1(c2ccc(Cl)cc2)CCCC1)C1CCCCC1 (stereo not shown) [Compound 390]	102%							% Inhibition (β-secretase(BACE) [1]; [7]): <30%; % Inhibition (β-secretase(BACE) [1]; [8]): 50%
CCCN1Cc2cc(Oc3cccc(N(C#N)CC4CCCCC4)c3)ccc2N=C1N [Compound 56]	35%	79%						
Cc1ccc(S(=O)(=O)NCCN2Cc3cc(Oc4ccccc4)ccc3N=C2N)cc1 [Compound 109]	<30%	58%						
CN(C(=O)[C@@H]1CCC[C@@H]1N1Cc2cc(Oc3ccccc3)ccc2N=C1N)C1CCCCC1 [Compound 72]	<30%	<30%						
CCCC(CCC)C(=O)NCc1cccc(CN2Cc3cc(Oc4ccccc4)ccc3N=C2N)c1 [Compound 338]	<30%							% Inhibition (β-secretase(BACE) [1]; [7]): <30%; % Inhibition (β-secretase(BACE) [1]; [8]): <30%
CN(C(=O)c1cccc(CN2Cc3cc(Oc4ccccc4)ccc3N=C2N)c1)C1CCCCC1 [Compound 62, 3-(2-Amino-6-phenoxy-4H-quinazolin-3-ylmethyl)-N-cyclohexyl-N-methyl-benzamide]								inhibition at 3 µM (β-secretase(BACE) [1]): 62%; inhibition at 10 µM (β-secretase(BACE) [1]): 82%; % Inhibition (β-secretase(BACE) [1]; 3 µM): 73%; % Inhibition (β-secretase(BACE) [1]; 10 µM): 82%
CC(C)CCC(=O)NCC(C1CCCCC1)N1Cc2cc(Oc3ccccc3)ccc2N=C1N (stereo not shown) [Compound 388]	119%							% Inhibition (β-secretase(BACE) [1]; [7]): 107%; % Inhibition (β-secretase(BACE) [1]; [8]): 119%
NC1=Nc2ccc(Oc3ccccc3)cc2CN1C(CNC(=O)C1CCCCC1)C1CCCCC1 (stereo not shown) [Compound 294, Cyclohexanecarboxylic acid [2-(2-amino-6-phenoxy-4H-quinazolin-3-yl)-2-cyclohexyl-ethyl]-amide]			0.016 µM	0.02 µM	94%	109%	118%	
CC(C)(C)OC(=O)NCC(c1ccccc1)N1Cc2cc(Oc3ccccc3)ccc2N=C1N (stereo not shown) [Compound 258]			0.39 µM	0.33 µM				% Inhibition (FS) 0.3 μM (β-secretase(BACE) [4]): <30%; % Inhibition (FS) 1 μM (β-secretase(BACE) [4]): 46%; % Inhibition (FS) 3 μM (β-secretase(BACE) [4]): 72%
CN(C(=O)[C@H]1CCCC[C@H]1N1Cc2cc(Oc3ccccc3)ccc2N=C1N)C1CCCCC1 [Compound 81]	<30%	<30%						

Compound	% Inhibition (β-secretase(BACE) [1]; [5])	% Inhibition (β-secretase(BACE) [1]; [6])	IC50 (β-secretase(BACE) [2])	Ki (β-secretase(BACE) [3])	inhibition at 0.3 µM (β-secretase(BACE) [4])	inhibition at 1 µM (β-secretase(BACE) [4])	inhibition at 3 µM (β-secretase(BACE) [4]; [9])	further results
CN(C(=O)c1cccc(CN2Cc3cc(-c4ccccc4Br)ccc3N=C2N)c1)C1CCCCC1 [Compound 331]			0.089 µM	0.19 µM	< 30%	60%	108%	
CCCCC(CC)C(=O)NCc1cccc(CN2Cc3cc(Oc4ccccc4)ccc3N=C2N)c1 (stereo not shown) [Compound 339]	<30%							% Inhibition (β-secretase(BACE) [1]; [7]): <30%; % Inhibition (β-secretase(BACE) [1]; [8]): <30%
CN(C(=O)c1cccc(CN2Cc3cc(-c4cccc5ccccc45)ccc3N=C2N)c1)C1CCCCC1 [Compound 330]			0.048 µM	0.21 µM	< 30%	66%	114%	
CC1CCCCC1C(=O)NCCN1Cc2cc(Oc3ccccc3)ccc2N=C1N (stereo not shown) [Compound 218]			0.13 µM	0.1 µM	75%	101%	114%	
CN(C(=O)c1cccc(CN2Cc3cc(-c4ccccc4O)ccc3N=C2N)c1)C1CCCCC1 [Compound 169]			0.058 µM	0.08 µM	80%	104%	109%	
CCCCC(CC)C(=O)NCC(c1ccccc1)N1Cc2cc(Oc3ccccc3)ccc2N=C1N (stereo not shown) [Compound 341]	72%							% Inhibition (β-secretase(BACE) [1]; [7]): <30%; % Inhibition (β-secretase(BACE) [1]; [8]): <30%
CCOc1ccccc1-c1ccc2c(c1)CN(Cc1cccc(C(=O)N(C)C3CCCCC3)c1)C(N)=N2 [Compound 329]			0.012 µM	0.02 µM	92%	109%	118%	
COc1cccc(-c2ccc3c(c2)CN(Cc2cccc(C(=O)N(C)C4CCCCC4)c2)C(N)=N3)c1 [Compound 165]			0.19 µM	0.28 µM	< 30%	72%	101%	
CN(C(=O)c1cccc(CN2Cc3cc(-c4ccsc4)ccc3N=C2N)c1)C1CCCCC1 [Compound 164]			0.11 µM	0.1 µM	67%	96%	109%	
NC1=Nc2ccc(Oc3ccccc3)cc2CN1C(CNC(=O)CC1CCCC1)C1CCCCC1 (stereo not shown) [Compound 311]			0.02 µM	0.05 µM				% Inhibition (FS) 0.3 μM (β-secretase(BACE) [4]): 74%; % Inhibition (FS) 1 μM (β-secretase(BACE) [4]): 108%; % Inhibition (FS) 3 μM (β-secretase(BACE) [4]): 118%
NC1=Nc2ccc(Oc3ccccc3)cc2CN1CCC(=O)NC1CCCCC1 [Compound 178]			0.19 µM	0.11 µM	50%	93%	107%	
CCC(c1cccc(C(=O)N(C)C2CCCCC2)c1)N1Cc2cc(Oc3ccccc3)ccc2N=C1N (stereo not shown) [Compound 204, 3-[1-(2-Amino-6-phenoxy-4H-quinazolin-3-yl)-propyl]-N-cyclohexyl-N-methyl-benzamide]			0.062 µM	0.23 µM			107%	% Inhibition (FS) 0.3 μM (β-secretase(BACE) [4]; 0.3 µM): <30% and 54%; % Inhibition (FS) 1 μM (β-secretase(BACE) [4]; 1 µM): 66% and 97%; % Inhibition (FS) 3 μM (β-secretase(BACE) [4]; 3 µM): 115%
COc1ccccc1-c1ccc2c(c1)CN(C(CCC(=O)N(C)C1CCCCC1)C1CCCCC1)C(N)=N2 (stereo not shown) [Compound 227]			0.043 µM	0.065 µM	86%	109%	116%	
CCCN1Cc2cc(Oc3cccc(NC(=O)CCCC(=O)N(C)C4CCCCC4)c3)ccc2N=C1N [Compound 755]			0.21 µM	0.27 µM				IC50 (β-secretase(BACE) [3]): 1.9 µM; inhibition at 3 µM (β-secretase(BACE) [4]; read-out: % Inhibition (FS)): 59%; inhibition at 10 µM (β-secretase(BACE) [4]; 10 μM test compound, read-out: % Inhibition (FS)): 79%
CN(C(=O)c1cccc(CN2Cc3cc(-c4ccccc4)ccc3N=C2N)c1)C1CCCCC1 [Compound 138]			0.023 µM	0.06 µM	98%	113%	114%	
CC(C)[C@H](CCC(=O)N(C)C1CCCCC1)N1Cc2cc(Oc3ccccc3)ccc2N=C1N [Compound 450]			0.011 µM	0.019 µM	97%	112%	121%	
CCCCC(CC)C(=O)NCC(C1CCCCC1)N1Cc2cc(Oc3ccccc3)ccc2N=C1N (stereo not shown) [Compound 303]			0.062 µM	0.24 µM	< 30%	70%	109%	
